Measurements: patent US20190116795A1, “USE OF TENVERMECTIN IN CONTROL OF HARMFUL INSECTS IN AGRICULTURAL AND FOREST CROPS” (ZHEJIANG HISUN PHARMACEUTICAL CO., LTD., priority 2016, published 2019)
Converted amounts (≈) assume the structure as drawn. Like-named read-outs stand apart in the source and are kept apart here.

Assays:
[1] = test system: Laodelphax striatellus imagoes; assay: whole plant or invertebrate; conditions: for Relative toxicity: maximum LC50 divided by LC50 of each agent, imidacloprid = 1
Experimental: Each original medicine was dissolved in DMF and formulated into a 10000 mg/L solution for later use.
Test insect source: The Laodelphax striatellus imagoes were collected in the rice fields of Jiaxing, Zhejiang, and were raised indoors with rice seedlings.
The soaking seedling method was used in this test. The test agents were diluted with tap water into five series of concentrations on the basis of pre-test to be used as test solutions. Specifically, lambda-cyhalothrin and imidacloprid were diluted to 5 mg/L, 10 mg/L, 25 mg/L, 50 mg/L and 100 mg/L; abamectin was diluted to 0.25 mg/L, 0.5 Mg/L, 1.0 mg/L, 2.5 mg/L and 5.0 mg/L; tenvermectin A was diluted to 0.05 mg/L, 0.10 mg/L, 0.25 mg/L, 0.5 mg/L and 1.0 mg/L. Rice seedlings that are sown indoors for about 25 days and have no rice planthopper eggs were taken, a few rice roots were left, the seedlings were soaked in pre-formed solution for 30 seconds then they were taken out and dried, and were put into a 3 cm×20 cm test tube. There was a little water at the bottom of the tube. 2-3 rice seedlings per tube, three repetitions per treatment, and the one treated with water was used as a control. Each tube receives 40-50 heads of Laodelphax striatellus, and the tubes were sealed with black cloth and were placed in a worm room under a temperature of (26±1) ° C. After 72 hours of treatment, the number of dead insects was checked. […] Experimental data statistics and analysis were performed using spss 19 software.
The relative toxicity index of the agent having the largest LC50 was set to be 1, and the relative toxicity index of each agent was determined by dividing the maximum LC50 by the LC50 value of each agent.

[2] = test system: Nilaparvata lugens imagoes; assay: Indoor toxicity against Nilaparvata lugens imagoes, soaking seedling method; type: in vivo; conditions: for LC50: Nilaparvata lugens imagoes, soaked rice seedlings, 72 hours, 26±1 °C; for Relative toxicity: maximum LC50 divided by LC50 of each agent, imidacloprid = 1
From the text: Test insect source: the Nilaparvata lugens imagoes were collected from the rice field in Jiaxing, Zhejiang and were raised indoors with rice seedlings.
The soaking seedling method was used in this test.

[3] = test system: Frankliniella occidentalis Pergande imagoes; assay: Indoor toxicity against Frankliniella occidentalis Pergande imagoes, impregnation method; type: in vivo; conditions: for LC50: Frankliniella occidentalis Pergande imagoes, impregnation, 48 hours after medication, 26 °C; for Relative toxicity: maximum LC50 divided by LC50 of each agent, imidacloprid = 1
From the text: The impregnation method was used. […] The quantitative Frankliniella occidentalis Pergande (15-20 heads) in the suction trap were flicked into the solution in the insect box, and the solution was gently stirred with a glass rod for 10 seconds, and the insect box was quickly removed from the solution, and when the solution was drained out from the insect box, the residual solution on the copper net was blotted with absorbent paper from the bottom of the insect box, and then a 3 cm long kidney bean slice (Frankliniella occidentalis Pergande feed) was put into the insect box, and finally the insect box was sealed with a parafilm. […] The sealed insect box was placed in a HPG280H light incubator under a temperature of 26° C. and a humidity of 70%.

[4] = test system: Bemisia tabaci imagoes; assay: Indoor toxicity against Bemisia tabaci imagoes, liquid membrane impregnation method of blades; type: in vivo; conditions: for Relative toxicity: maximum LC50 divided by LC50 of each agent, acetamiprid = 1
Experimental: The liquid membrane impregnation method of blades was used. […] One tomato leaf was placed in each culture dish. Three repetitions per treatment, a leaf was soaked with water, dried, and then was placed in a culture dish to be used as a control. The Bemisia tabaci imagoes were gently patted into the culture dish, about 30 to 40 imagoes in each dish. The dishes were sealed with plastic wrap, several small holes were made on the plastic wrap to facilitate ventilation. After 24 hours, the death of Bemisia tabaci imagoes was checked under a binocular microscope (the anatomical needle was used to gently touch the Bemisia tabaci imagoes, and the motionless ones were regarded to be dead). Experimental data statistics and analysis were performed with spss 19 software.

[5] = test system: zebrafish; assay: Toxicity test on zebrafish, semi-static method; type: in vivo, Brachydanio rerio
Experimental: Test fish and water: zebrafish (Brachydanio rerio) were purchased from Zhejiang Academy of Agricultural Sciences and were of uniform size with an average body length of 2-3 cm and an average body weight of 0.3 g. They were domesticated for 7 days indoors before the test. The natural mortality rate was zero. Feeding was stopped 1 day before the test and the fish were not fed during the test. The test water was tap water after removing residual chlorine by exposure to the sun for more than 24 hours, and the pH was 6.8.
The sample was formulated into 50 mg/ml mother liquor with DMF.
Method: Semi-static method. Three level differences were set for each sample:
0.5 ppm, 1.0 ppm and 2.0 ppm, and three sets of parallels were set for each level difference, 10 zebrafish were raised for each group, and blank controls (one group without agents and one group with only solvent) were set. The corresponding volume of mother liquor was taken according to the concentration as required for each sample, and the volume of each sample was adjusted to 150 μl with DMF, and then each sample was added to the test group (containing 1.6 L of water). The room temperature was controlled at 22±2° C. for 96 hours, and the water was changed every 24 hours and the samples were re-added. The fish mortality rate was recorded for the first 8 hours and at 24, 48, 72, and 96 hours, and the dead fish were removed in time. Finally, the agents were divided into three grades according to the values of LC50: low-toxic pesticides with a LC50>10 ppm, middle-toxic pesticides with a LC50 of 1.0-10 ppm, and high-toxic pesticides with a LC50<1.0 ppm.

[6] = test system: Coptotermes formosanus Shiraki; assay: Indoor toxicity against Coptotermes formosanus Shiraki, topical drop with microinjector; type: in vivo; conditions: for Relative toxicity: maximum LC50 divided by LC50 of each agent, abamectin = 1
Experimental: Specifically, abamectin was diluted to 0.01 mg/L, 0.025 mg/L, 0.05 mg/L, 0.10 mg/L and 0.25 mg/L; tenvermectin A and tenvermectin B were diluted to 0.001 mg/L, 0.0025 mg/L, 0.005 mg/L, 0.01 mg/L and 0.025 mg/L. The termites to be tested were placed in culture dishes with a diameter of 15 cm, and 20 worker ants were placed in each dish. During the test, a microinjector was used to drop 1 μI of the solution to the thorax and abdome of each termite for a total of 3 repetitions. One fungus comb was placed in each dish for termites to inhabit and a wet absorbent cotton ball was placed to moisturize. After completing dropping the solution, the culture dish was placed in a chamber under a constant temperature of 18±1° C. and a constant humidity and was cultivated in dark conditions, the death conditions were observed 24 hours and 48 hours after dropping the solution respectively. A writing brush was used to touch the various parts of the bodies of the termites and the termites that are completely immobile were judged to be dead.

[7] = test system: cabbage Phyllotreta; assay: Field efficacy test against cabbage Phyllotreta; type: in vivo; conditions: 1 day, 3 days and 7 days after medication
Experimental: In the laboratory, the above-mentioned original medicines were respectively formulated into the following formulations for later use: 1.8% abamectin emulsifiable concentrate, 1.8% tenvermectin A emulsifiable concentrate, 1.8% tenvermectin B emulsifiable concentrate, 5% imidacloprid emulsifiable concentrate, 5% acetamiprid emulsifiable concentrate, 2.5% lambda-cyhalothrin emulsifiable concentrate.
The test was conducted in Linhai City, and the test crop was cabbage, and the object to be controlled was Phyllotreta.
The experiment consisted of 7 treatments, 3 replicates per treatment, 21 sections in total. The sections were randomly arranged, the area for each section was 66.7 m^2. A type of knapsack manual sprayer was used to spray once, the amount of each section was calculated according to the amount of 50 ml/mu, and the leaves were sprayed evenly. Each treatment was isolated from each other to avoid mutual interference. A blank control was set, and the blank control was sprayed with water. The population base of insects was investigated before medication, and the number of live insects was investigated 1 day, 3 days, and 7 days after medication, and a total of 4 investigations were conducted. 20 plants were randomly investigated per section. The rate of reduction of population was calculated and the control effect was corrected. No other pesticides were used during the test. […]

[8] = Laodelphax striatellus, in Oryza sativa, 72 h
[9] = Bemisia tabaci imagoes, soaked tomato leaves, death checked after 24 hours

CC1(C)[C@H](C(=O)O[C@H](C#N)c2cccc(Oc3ccccc3)c2)[C@@H]1/C=C(\Cl)C(F)(F)F (racemic) [Lambda-cyhalothrin]
LC50 [1, 8]: 12 µg/mL (≈ 26.7 µM) | Relative toxicity [1]: 2.648 | LC50 ([2]; read-out: LC50): 17.7 µg/mL (≈ 39.4 µM) | Relative toxicity [2]: 1.923

O=[N+]([O-])NC1=NCCN1Cc1ccc(Cl)nc1 [Imidacloprid]
LC50 [1, 8]: 31.8 µg/mL (≈ 124 µM) | Relative toxicity [1]: 1 | LC50 ([2]; read-out: LC50): 33.9 µg/mL (≈ 132 µM) | Relative toxicity [2]: 1 | LC50 ([3]; read-out: LC50): 39.1 µg/mL (≈ 153 µM) | Relative toxicity [3]: 1

Milbemycin
LC50 ([4]; in vivo): 0.210 µg/mL | Relative toxicity [4]: 12.100 | Surviving condition (survival rate %) ([5]; 0.5 ppm, 8 h): 0% | Surviving condition (survival rate %) ([5]; 1.0 ppm, 8 h): 0% | Surviving condition (survival rate %) ([5]; 2.0 ppm, 8 h): 0%

CO[C@H]1CC(OC2[C@H](C)OC(OC3/C(C)=C/C[C@@H]4C[C@@H](C[C@]5(CCC(C)[C@@H](C)O5)O4)OC(=O)[C@@H]4C=C(C)[C@@H](O)[C@H]5OC/C(=C\C=C\C3C)[C@]54O)C[C@@H]2OC)O[C@@H](C)C1O (some centres unmarked) [Tenvermectin A, tenvermectin A]
LC50 [4, 9]: 0.023 µg/mL (≈ 0.0276 µM) | Relative toxicity [4]: 110.478 | LC50 ([1]; in vivo): 0.296 µg/mL (≈ 0.355 µM) | Relative toxicity [1]: 107.490 | LC50 ([6]; in vivo): 0.0086 µg/mL (≈ 0.0103 µM) | Relative toxicity [6]: 4.77 | Surviving condition (survival rate %) ([5]; 0.5 ppm, 8 h): 100% | Surviving condition (survival rate %) ([5]; 0.5 ppm, 24 h): 100% | Surviving condition (survival rate %) ([5]; 0.5 ppm, 48 h): 100% | Surviving condition (survival rate %) ([5]; 0.5 ppm, 72 h): 100% | Surviving condition (survival rate %) ([5]; 0.5 ppm, 96 h): 100% | Surviving condition (survival rate %) ([5]; 1.0 ppm, 8 h): 100% | Surviving condition (survival rate %) ([5]; 1.0 ppm, 24 h): 100% | Surviving condition (survival rate %) ([5]; 1.0 ppm, 48 h): 100% | Surviving condition (survival rate %) ([5]; 1.0 ppm, 72 h): 100% | Surviving condition (survival rate %) ([5]; 1.0 ppm, 96 h): 100% | Surviving condition (survival rate %) ([5]; 2.0 ppm, 8 h): 100% | Surviving condition (survival rate %) ([5]; 2.0 ppm, 24 h): 100% | Surviving condition (survival rate %) ([5]; 2.0 ppm, 48 h): 100% | Surviving condition (survival rate %) ([5]; 2.0 ppm, 72 h): 93% | Surviving condition (survival rate %) ([5]; 2.0 ppm, 96 h): 80% | control effect on cabbage Phyllotreta (in words) [7]: no control effect

C/C(=N\C#N)N(C)Cc1ccc(Cl)nc1 [Acetamiprid]
LC50 ([4]; Bemisia tabaci, in Solanum lycopersicum, 24 h): 2.54 µg/mL (≈ 11.4 µM) | Relative toxicity [4]: 1

Abamectin
LC50 [4, 9]: 0.225 µg/mL | Relative toxicity [4]: 11.293 | LC50 ([1]; Laodelphax striatellus imagoes, soaked rice seedlings, 72 hours, 26±1 °C): 3.101 µg/mL | Relative toxicity [1]: 10.260 | LC50 [2]: 3.062 µg/mL | Relative toxicity [2]: 11.063 | LC50 [3]: 2.648 µg/mL | Relative toxicity [3]: 14.759 | LC50 ([6]; Coptotermes formosanus worker ants, 1 μl dropped per termite, 18±1 °C, observed 24 and 48 hours (time of LC50 not stated)): 0.041 µg/mL | Relative toxicity [6]: 1 | Surviving condition (survival rate %) ([5]; 0.5 ppm, 8 h): 0% | Surviving condition (survival rate %) ([5]; 1.0 ppm, 8 h): 0% | Surviving condition (survival rate %) ([5]; 2.0 ppm, 8 h): 0%

CC[C@H](C)C1O[C@]2(C=C[C@@H]1C)C[C@@H]1C[C@@H](C/C=C(\C)[C@@H](O[C@H]3C[C@H](OC)[C@@H](O[C@H]4C[C@H](OC)[C@H](NC)[C@H](C)O4)[C@H](C)O3)[C@@H](C)/C=C/C=C3\CO[C@@H]4[C@H](O)C(C)=C[C@@H](C(=O)O1)[C@]34O)O2.O=C(O)c1ccccc1 (some centres unmarked) [Methylamino abamectin benzoate]
LC50 [3]: 0.318 µg/mL | Relative toxicity [3]: 122.896 | Surviving condition (survival rate %) ([5]; 0.5 ppm, 8 h): 0% | Surviving condition (survival rate %) ([5]; 1.0 ppm, 8 h): 0% | Surviving condition (survival rate %) ([5]; 2.0 ppm, 8 h): 0%

CC[C@H]1O[C@]2(CCC1C)C[C@@H]1C[C@@H](C/C=C(\C)C(OC3C[C@H](OC)C(OC4C[C@H](OC)C(O)[C@H](C)O4)[C@H](C)O3)C(C)/C=C/C=C3\CO[C@@H]4[C@H](O)C(C)=C[C@@H](C(=O)O1)[C@]34O)O2 (some centres unmarked) [Tenvermectin B, tenvermectin B]
LC50 ([6]; in vivo): 0.0066 µg/mL (≈ 0.00779 µM) | Relative toxicity [6]: 6.21 | Surviving condition (survival rate %) ([5]; 0.5 ppm, 8 h): 100% | Surviving condition (survival rate %) ([5]; 0.5 ppm, 24 h): 70% | Surviving condition (survival rate %) ([5]; 0.5 ppm, 48 h): 50% | Surviving condition (survival rate %) ([5]; 0.5 ppm, 72 h): 0% | Surviving condition (survival rate %) ([5]; 1.0 ppm, 8 h): 53% | Surviving condition (survival rate %) ([5]; 1.0 ppm, 24 h): 0% | Surviving condition (survival rate %) ([5]; 2.0 ppm, 8 h): 10% | Surviving condition (survival rate %) ([5]; 2.0 ppm, 24 h): 0% | control effect on cabbage Phyllotreta (in words) [7]: no control effect

Ivermectin
Surviving condition (survival rate %) ([5]; 0.5 ppm, 8 h): 0% | Surviving condition (survival rate %) ([5]; 1.0 ppm, 8 h): 0% | Surviving condition (survival rate %) ([5]; 2.0 ppm, 8 h): 0%
